Results reported in patent US20180009764A1, “METHOD FOR TREATING MACROPHAGE MIGRATION INHIBITORY FACTOR (MIF)-IMPLICATED DISEASES AND CONDITIONS WITH IODO PYRIMIDINE DERIVATIVES” (UNIVERSITY OF LOUISVILLE RESEARCH FOUNDATION, INC., priority 2009, published 2018).
≈ marks a conversion by molar mass, not a printed value.

Experiments:
MIF [1] = target: T1, MIF (Mus musculus, UniProt P34884); assay: MIF liver lysates enzymatic activity ex vivo (L-dopachrome tautomerase); conditions: mice; IP 1 mg in corn oil every day for 3 days; livers 6 hours after last injection; FIG. 1
T1 construct: from tissue; host or cells: mouse liver (A7); liver, lung and brain of C57BL6 mice (A20)
Description: This experiment, using an ex-vivo approach and the tautomeric reaction of L-dopachrom, was designed to ascertain the level of inhibition of MIF following administration of the compounds of this invention via oral, IV, IP or any other route of administration. Mice were used in the example illustrated below, but other animals could be used as well. Groups of 3 mice were administered IP 1 mg of 4-IPP and ACT-002 resuspended in 100 μl of corn oil every day for 3 days. Mice were sacrificed 6 hours after the last injection and livers were harvested. ˜1 gram pieces of liver were lysed in PBS containing 1 mM NaVO4, 2 mM NaF and a protease inhibitor cocktail (Roche Biochemical, Indianapolis, Ind.) using dounce-homogenization on ice. 500 μg of liver lysates were added to a final volume of 700 μl PBS in plastic cuvettes. 4 mM L-3, 4-dihydroxyphenylalanine methyl ester and 8 mM sodium periodate (Sigma-Aldrich) were combined in a 3:2 ratio to form L-dopachrome methyl ester. 300 μL of L-dopachrome methyl ester was then immediately added to the cuvettes; the OD475 nm was measured 2 min and 4 min after addition of the L-dopachrome.

MIF [2] = target: T2, MIF (Homo sapiens, UniProt P14174); assay: MIF cell lysate enzymatic inhibition; type: biochemical; conditions: cell lysates
T2 construct: the enzymatic activity of MIF present in cell lysates; endogenous in cells
T2 sequence (P14174 2-115 limits assumed): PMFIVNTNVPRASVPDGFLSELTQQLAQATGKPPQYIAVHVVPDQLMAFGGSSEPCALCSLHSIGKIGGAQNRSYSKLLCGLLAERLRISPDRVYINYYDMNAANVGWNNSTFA
Description: Normal or transformed cell lysates can be used to determine the concentration inhibiting the enzymatic activity of MIF present in cell lysates. Cells are cultured in the appropriate media to the required number of cells, collected, and lysed. Compounds to be characterized are solubilized in DMSO and serial dilutions are performed in order to obtain a range of concentrations including complete and no quantifiable inhibition.

[3] = tested on: primary human T lymphocytes; assay: Anti-CD3 induced T lymphocyte activation/proliferation (flow cytometry); type: cell-based; conditions: 25 μM
Description: In order to assess the ability of MIF antagonists to disrupt autoimmune-associated T cell activation, primary human T lymphocytes were prepared using standard Ficoll-gradient preparations. 1×10^6 lymphocytes/ml were resuspended in RPMI/10% FCS and plated onto anti-CD3 antibodies previously immobilized onto tissue culture plates. Control, vehicle control (0.1% DMSO), 25 μM 4-IPP or 25 μM ACT-003 were added to cells and allowed to incubate for 48 hours. Cells were lifted, washed and stained with anti-CD4 or anti-CD8 antibodies and then analyzed by flow cytometry.
To validate the effects of MIF antagonists on T lymphocyte activation, experiments were set up exactly as described above and, 48 hours later, treated and untreated lymphocytes were stained with an anti-CD25 antibody. CD25 is also known as the high affinity IL-2 receptor—a very well characterized and frequently marker of T lymphocyte activation.
In order to investigate the relative kinetics of when 4-IPP and ACT-003 are acting in blocking T lymphocyte activation, we repeated the experiment described above but harvested lymphocytes only 16 hours after anti-CD3 plating. At this early time point during T lymphocyte activation, CD69 is found to be expressed and is usually considered to be an “early marker” of lymphocyte activation.
Finally, to confirm that proliferation of CD4+ and CD8+ T lymphocytes is blocked by 4-IPP-based MIF antagonists, we repeated the experiment as described above, added labeled-BrdU to cells, stained with either labeled anti-CD4 or anti-CD8 antibodies and then assessed relative CD4/CD8 and BrdU labeling in each treatment group.

[4] = Caco-2 cell permeability and transport; type: in vitro ADME; parameters: Caco-2 Permeability Papp B-A / Caco-2 Permeability Papp A-B: unit not given here; conditions: human, Caco-2, pH 7.4
Description: (§1) Cell permeability and transport mechanisms in Caco-2 and MDR1-MDCK monolayers experiments were performed in triplicate in the apical-to-basolateral and basolateral-to-apical direction using […]® wells containing either Caco-2 or MDR1-MDCK monolayers. A modified Hanks buffer pH 7.4 was used in both reservoir and receiver wells with the addition of 1% BSA in the receiver side. Confluent monolayers were used and their integrity was verified using reference compounds (Atenolol as a low permeability reference compound and Propanolol as a high permeability reference compound). A sample in the basolateral and apical sides was taken after 2 hours and the concentration measured by LC/MS-MS.

Caco-2 monolayers = assay: Caco-2 cell permeability and transport; type: in vitro ADME; parameters: Caco-2 Permeability Papp B-A / Caco-2 Permeability Papp A-B: unit not given here
Description: as §1

[5] = Microsomal stability in human liver microsomes; type: in vitro ADME
Description: Stability in human liver microsomes was tested over […] at 37° C. using pooled mixed gender human liver microsomes. Liver microsomes were prepared at 1.0 mg/ml of microsomal protein in a 100 mM potassium phosphate pH 7.4 buffer with 1 mM NADPH. The media was incubated at 37° C. with the compound in solution in DMSO. The concentration of the compound was followed by LC/MS-MS as a function of time. Samples were assayed at t=0, 30, 60 and 120 minutes. Testosterone was used as a positive control. The same experiment was performed with mouse liver microsomes instead of human liver microsomes.

Du 145 = assay: Inhibition of tumor cells proliferation (CellTiter Glo); type: cell-based; conditions: Homo sapiens, 72 hours
Description: Inhibition of the proliferation of tumor cells was investigated in vitro in several tumor cell lines. Cells of the desired tumor cell line were plated at 2×10^5 cells/ml in 96 well plates. Twice the indicated concentrations of the compounds of the invention were added to cells the following day in an equal volume of media. 72 hours later, cells were lysed and subjected to ATP determination using the CellTiter Glo-Luminescent Cell Viability Assay kit (Promega, Madison, Wis.). Experiments were done in triplicate. Results for the inhibition of cells proliferation are reported as IC50 (the concentration leading to a 50% inhibition of proliferation of the cell population) and are listed in Table 6. FIGS. 3 and 4 show bar graphs comparing the IC50s of specific embodiments of compounds of the invention across multiple tumor cell lines.

LOX-IMV1 tumor cell line = assay: Inhibition of cell migration (Oris Cell Migration Assay); type: cell-based; conditions: 72 hrs, even at low concentrations (0.03 μM), FIG. 7
Description: The LOX-IMV1 tumor cell line was used to determine the inhibition of cell migration using the Oris Cell Migration Assay kit (Promega, Mich.). Briefly, adherent cells were seeded into each well of the kit according to kit instructions. Concentrations of cells in the migration zone were determined to calculate IC50 values. Prior to the migration assay, cell proliferation IC50s were determined to differentiate between inhibition of proliferation and migration. […] A slightly modified method was also used to determine the inhibition of invasion.

[6] = tested on: Chick Chorioallantoic Membrane (CAM); assay: CAM assay with matrigel plugs; type: in vivo
Description: 8 groups with 10 embryos in each group were used in the experiment described below. Fresh fertile eggs were incubated for 3 days in a standard egg incubator at 37° C. for 3 days. On Day 3, eggs were cracked under sterile conditions and embryos were placed into 20×100 mm plastic plates and cultivated at 37° C. in an embryo incubator with a water reservoir on the bottom shelf. Air was continuously bubbled into the water reservoir using a small pump so that the humidity in the incubator is kept constant. On Day 6, a sterile silicon “o” ring was placed on each CAM and test compound dissolved in 0.5% methylcellulose was placed into each “o” ring in a sterile hood. Paclitaxel was used as a positive control. Embryos were returned to the incubator after addition of test material. Control embryos received 10 μL of vehicle alone. On Day 8, embryos were removed from the incubator and kept at room temperature while blood vessel density were determined under each “o” ring using an image capturing system at a magnification of 160×. The blood vessel density was measured using an angiogenesis scoring system in that arithmetic numbers 0 to 5 (or exponential numbers 1 to 32) are used to indicate number of blood vessels present at the treatment sites on the CAM. Number 5 represents the highest density and 0 represents no angiogenesis. The percent of inhibition at each dosing site was calculated using the score recorded for that site divided by the mean score obtained from the appropriate control samples for each individual experiment. The percent of inhibition for each dose of a given compound was calculated by pooling all results obtained for that dose from 8-10 embryos.
Another experiment was performed using a protocol similar to the one described above but using matrigel plugs instead of o ring to deliver the test material to the CAM. Results are summarized in Table 9 below and show a statistically significant inhibition of angiogenesis at the high concentrations of test material.

[7] = Solubility in varying solvents; type: physicochemical; conditions: 21 °C, 20-22° C.
p53 = p53 up regulation, p53 luciferase assay; type: cell-based; conditions: 10 μM; FIG. 5
Description: The up regulation of p53 was determined using a commercially available p53 luciferase assay kit. 1×10^5 cells/ml were plated in a 24 well plate and allowed to adhere overnight. MIF antagonists were added to the cells at the indicated concentrations for 16 hours and transiently co-transfected with 0.125 μg/well of p53-responsive luciferase promoter plasmid (Promega, Madison, Wis.) together with 0.0125 μg/well Renilla pRL-null plasmid (Promega) using Lipofectamine (Invitrogen) transfection reagent. After 24 hrs, Firefly and Renilla luciferase activities were measured by the Dual Luciferase Reporter Assay System (Promega, Madison, Wis.) on a TD-20/20 luminometer (Turner Designs).

MIF [8] = target: T1, MIF; assay: Oral bioavailability: ex vivo MIF enzymatic activity in liver, brain and lung after IP and PO dosing; parameters: species or system C57BL6 mice
Description: The compounds were administered orally (PO) and intraperitoneally (IP) to healthy animals. The inhibition of the MIF liver enzymatic activity determined ex vivo following IP and PO dosing is similar, indicating high oral bioavailability. Furthermore, brain and lung tissues were collected and processed to determine MIF enzymatic activity in these organs. […] Inhibition of MIF enzyme was determined […] following dosing of MIF-002 at 40 mg/kg once a day for three days, both IP and PO (normal C57BL6 mice, n=3). Tissues were collected at sacrifice and processed. Liver, lung, and brain tissues were collected, processed, and used for the determination of MIF enzyme activity. Values are expressed as a percentage calculated using DMSO as control (no inhibition).
Two additional compounds were tested, MIF-035 and MIF-041.

[9] = Microsomal stability in human liver microsomes; type: in vitro ADME; conditions: 15 min; 37° C.; 1 mM NADPH
[10] = both, human, microsomes, 0 h, pH 7.4
[11] = both, human, microsomes, 1 h, pH 7.4

Structure (SMILES)	IC50 (MIF [2]) [nM]	efflux ratio at 2 h [4]	Caco-2 Permeability Class (Caco-2 monolayers)	Metabolic Stability in Human Microsomes % Remaining [5, 10] [%]	Metabolic Stability in Human Microsomes % Remaining [5, 11] [%]	IC50 (Du 145) [nM]	Inhibition of cell migration (LOX-IMV1 tumor cell line)	Blood Vessel Counts ([6]; 0.3 nM per CAM)	Blood Vessel Counts ([6]; 3 nM per CAM)	Blood Vessel Counts ([6]; 30 nM per CAM)	also measured
Ic1cc(-c2ccccc2)ncn1 [4-IPP, 4-iodo-6-phenylpyrimidine, reference compound]	> 2000	–	–	–	–	–	–	–	–	–	MIF liver enzyme inhibition (MIF [1]): significant in vivo inhibition of MIF; CD69 expression ([3]; 16 hours, FIGS. 17 and 18): only a marginal effect on CD69 expression; CD4 and CD8 T lymphocytes after anti-CD3 activation ([3]; 48 hours, FIGS. 13 and 14): significantly fewer CD4 and CD8 T lymphocytes; Anti-CD3-induced CD25 expression ([3]; 48 hours, FIGS. 15 and 16): almost completely blocked the anti-CD3-induced CD25 expression; BrdU labeling of CD8+ and CD4+ T lymphocytes (proliferation) ([3]; 48 hours, FIGS. 19 and 20): almost completely blocked BrdU labeling in both CD8+ and CD4+ T lymphocytes
Ic1cc(-c2cccnc2)ncn1 [ACT-MIF-006, 4-Iodo-6-(pyridin-3-yl)pyrimidine]	250	1.4	High	100	82	36700	significant inhibition of migration	38.8 ± 3.5	35.8 ± 5.4	33.5 ± 1.7	–
NC(=O)c1cccc(-c2cc(I)ncn2)c1 [ACT-MIF-035, 4-Iodo-6-(3-aminocarbonylphenyl)pyrimidine]	185	1.1	High	100	92	21700	significant inhibition of migration	28.3 ± 1.7	27.3 ± 2.4	26.7 ± 1.9	solubility ([7]; aqueous with cosolvent or surfactant or cyclodextrin, Ethanol/Tween 80): 10000 µg/mL (≈ 30.8 mM); solubility ([7]; oil or lipid, Corn oil): < 6000 µg/mL; solubility ([7]; organic solvent or mixture, Ethanol): 1400 µg/mL (≈ 4.31 mM); solubility ([7]; organic solvent or mixture, PEG-300): 13300 µg/mL (≈ 40.9 mM); solubility ([7]; organic solvent or mixture, Propane-diol): 2700 µg/mL (≈ 8.3 mM); Caco-2 Permeability Papp A-B (Caco-2 monolayers; apical-to-basolateral, pH 7.4, 2 hours): 3.1; Caco-2 Permeability Papp B-A (Caco-2 monolayers; basolateral-to-apical, pH 7.4, 2 hours): 3.3; p53 regulation (p53): implicated in p53 regulation; Oral bioavailability (MIF [8]; judged from ex vivo MIF inhibition after IP and PO dosing): orally bioavailable; Crossing of the blood brain barrier (MIF [8]; judged from ex vivo MIF inhibition in brain): crossed the blood brain barrier
C[C@]12CC[C@H]3[C@@H](CCC4=CC(=O)CC[C@@]43C)[C@@H]1CC[C@@H]2O [Testosterone, reference compound]	–	–	–	–	–	–	–	–	–	–	Metabolic Stability in Human Microsomes % Remaining ([5]; 0 min, 37° C., 1 mM NADPH): 100%; Metabolic Stability in Human Microsomes % Remaining [9]: 56%
